The data set is described as follows: Plasma concentration of Gd-containing contrast agent after injection into jejunal pouch (MRI of plasma samples, standard curve). The format is in vivo, rat. As to conditions: for concentration of the Gd-containing contrast agent in the plasma: 0.5 ml (0.5 M) into jejunal pouch, mean±SEM. The procedure:
Male Wistar rats weighed 250 g to 300 g were used in this experiment. The rats were randomly divided into 2 groups: sham-operation control group (CON) and ischemia/reperfusion group (I/R). Before the experiment, the rats were fasted overnight but allowed to drink water ad lib. The experiment was conducted in a sterile environment. The rats in the two groups were anethesized by intraperitoneal injection of ethyl urethane (1.2 g/kg), and then subjected to abdominal median incision. A jejunal pouch of 10 cm was made at 10 cm from the end of suspensory ligament of duodenum. A 1 ml syringe with a PE-10 catheter was intubated to one end of the jejunal pouch and 0.5 ml of Krebs buffer solution was slowly injected into the pouch from the syringe. The formula of Krebs buffer solution was as follows: 115 mmol/L of NaCl, 8 mmol/L of KCl, 1.25 mmol/L of Ca Cl2, 1.2 mmol/L of MgCl2, 2.0 mmol/L of KH2PO4 and 25 mmol/L of NaHCO3, with a pH of 7.33 to 7.37. […] The CON rats were subjected to abdominal median incision but not subjected to SMA closure. Thereafter, the tissue samples were taken from the rats of these 2 groups for histologic examination and analysis of bacterial translocation (as shown below). […]
In order to determine the rate of the Gd-containing contrast agent transferred from jejunal lumen into systemic circulation, a PE-50 catheter was intubated into left femoral artery before the surgical operation. […] The intensity of signal indication of each plasma sample and of each standard solution was calculated by using a determining device to circle a region of 4 mm^2 in MRI image and to calculate the intensity of signal indication in the region (mm^2). […] The concentration of the Gd-containing contrast agent in the plasma samples at each time point was calculated, using the standard curve. The flow-out rate of the Gd-containing contrast agent flowing from intestinal lumen to systemic circulation at different stages of reperfusion was calculated and expressed in mM/min.

SMILES strings stand for the structures.

Regarding `CNC(=O)CN(CCN(CCN(CC(=O)[O-])CC(=O)NC)CC(=O)[O-])CC(=O)[O-].[Gd+3]` [Gd-containing contrast agent], the “concentration of the Gd-containing contrast agent in the plasma” value (CON rats (sham operation), 15 minutes) was determined as 6 ± 4 µM and the “concentration of the Gd-containing contrast agent in the plasma” value (I/R rats (20 min SMA closure), after 15 minutes of reperfusion) is 220 ± 44 µM. The “flow-out rate of the Gd-containing contrast agent from intestinal lumen to systemic circulation, I/R rats versus CON rats” value (stage of 0-15 minutes of reperfusion) is listed as “significantly higher than that in CON rats”.

The values above are taken from patent US20090287077A1, “SYSTEM FOR DETECTING FUNCTION OF INTESTINAL BARRIER AND METHOD FOR USING THE SAME” (NATIONAL TAIWAN UNIVERSITY, priority 2008, published 2009).
